Measured values reported in ChEMBL document CHEMBL6083192, “Discovery of 1,2,4-Triazole-3-thione Derivatives as Potent and Selective DCN1 Inhibitors for Pathological Cardiac Fibrosis and Remodeling” (J Med Chem, 2024).

Experiments:
[1] = Hepatotoxicity in human L02 cells assessed as reduction in cell viability by MTT assay
[2] = molecular target: DCN1-like protein 1/NEDD8-conjugating enzyme Ubc12 (Homo sapiens, UniProt Q96GG9); experiment: Inhibition of GST-tagged DCN1 (unknown origin)/acetylated-biotin tagged UBC12 (unknown origin) protein-protein interaction incubated for 30 mins by HTRF assay
[3] = Inhibition of GST-tagged DCN2 (unknown origin)/acetylated-biotin tagged UBC12 (unknown origin) protein-protein interaction assessed as inhibition constant incubated for 30 mins by HTRF assay
[4] = Inhibition of GST-tagged DCN3 (unknown origin)/acetylated-biotin tagged UBC12 (unknown origin) protein-protein interaction assessed as inhibition constant incubated for 30 mins by HTRF assay
[5] = Inhibition of GST-tagged DCN5 (unknown origin)/acetylated-biotin tagged UBC12 (unknown origin) protein-protein interaction assessed as inhibition constant incubated for 30 mins by HTRF assay
[6] = Inhibition of GST-tagged DCN4 (unknown origin)/acetylated-biotin tagged UBC12 (unknown origin) protein-protein interaction assessed as inhibition constant incubated for 30 mins by HTRF assay
DCN1-like protein 1 = DCN1-like protein 1 (Homo sapiens, UniProt Q96GG9); experiment: Inhibition of DCN1 (unknown origin) assessed as inhibition constant
Sequence of DCN1-like protein 1 (Q96GG9 whole entry): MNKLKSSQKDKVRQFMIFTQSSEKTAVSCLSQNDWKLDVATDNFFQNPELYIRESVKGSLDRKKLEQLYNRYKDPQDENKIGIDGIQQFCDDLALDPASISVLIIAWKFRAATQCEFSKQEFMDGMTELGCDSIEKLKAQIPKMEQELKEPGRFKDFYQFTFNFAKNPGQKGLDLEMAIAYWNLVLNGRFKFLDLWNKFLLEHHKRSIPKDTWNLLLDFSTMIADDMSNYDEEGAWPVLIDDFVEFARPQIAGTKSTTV

Sequence of DCN1-like protein 1/NEDD8-conjugating enzyme Ubc12 (Q96GG9 whole entry): as above
Sequence of DCN1-like protein 1/NEDD8-conjugating enzyme Ubc12 (P61081 whole entry, further chain): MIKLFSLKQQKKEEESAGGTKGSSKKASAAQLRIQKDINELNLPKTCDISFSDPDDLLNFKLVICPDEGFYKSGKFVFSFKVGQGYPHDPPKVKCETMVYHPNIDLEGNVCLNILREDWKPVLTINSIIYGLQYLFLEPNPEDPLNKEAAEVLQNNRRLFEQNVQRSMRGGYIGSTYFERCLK

Compound | IC50 [2] | also measured
O=C(CCn1c(-c2c[nH]c3ccccc23)n[nH]c1=S)Nc1cccc(C(F)(F)F)c1 | 9.39 nM | IC50 [1]: > 100 µg/mL
COc1ccc(NC(=O)CCn2c(-c3ccc(Cl)cc3)n[nH]c2=S)cc1 | 90.9 nM | –
COc1ccc(CSc2nnc(-c3ccc(Cl)cc3)n2CCC(=O)Nc2cccc(C(F)(F)F)c2)cc1 | 4110 nM | –
O=C(CCn1c(-c2ccc(Cl)cc2)n[nH]c1=S)Nc1ccc(F)cc1 | 130 nM | –
CCCCc1ccc(NC(=O)CCn2c(-c3ccc(Cl)cc3)n[nH]c2=S)cc1 | 12.3 nM | IC50 [1]: > 100 µg/mL
O=C(CCn1c(SCC(=O)Nc2ccccc2)nnc1-c1ccc(Cl)cc1)Nc1cccc(C(F)(F)F)c1 | > 20000 nM | –
O=C(CCn1c(-c2ccc(O)cc2)n[nH]c1=S)Nc1ccc(C(F)(F)F)cc1 | 10.6 nM | IC50 [1]: > 100 µg/mL
O=C(CCn1c(-c2cccc(Cl)c2)n[nH]c1=S)Nc1cccc(C(F)(F)F)c1 | 19.9 nM | IC50 [1]: > 100 µg/mL
CCSc1nnc(-c2ccc(Cl)cc2)n1CCC(=O)Nc1cccc(C(F)(F)F)c1 | 2200 nM | –
COc1ccc(-c2n[nH]c(=S)n2CCC(=O)Nc2cc(C#N)[nH]n2)cc1 | > 20000 nM | –
C#CCNC(=O)CCn1c(-c2ccc(Cl)cc2)n[nH]c1=S | > 20000 nM | –
C#CCNC(=O)CCn1c(-c2ccc(OC)cc2)n[nH]c1=S | > 20000 nM | –
O=C(CCn1c(-c2ccccc2)n[nH]c1=S)Nc1cccc(C(F)(F)F)c1 | 15.3 nM | IC50 [1]: > 100 µg/mL
COc1ccc(-c2n[nH]c(=S)n2CCC(=O)NCCc2c[nH]c3ccccc23)cc1 | 2280 nM | –
O=C(CCn1c(-c2ccc(Cl)cc2Br)n[nH]c1=S)Nc1cccc(C(F)(F)F)c1 | 5.41 nM | –
CC(C)(C)c1ccc(NC(=O)CCn2c(-c3ccc(Cl)cc3)n[nH]c2=S)cc1 | 8.77 nM | IC50 [1]: > 100 µg/mL
C#CCSc1nc(Sc2nccs2)c(C#N)c(-c2ccc(C)cc2)n1 | – | Ki [3]: 66.2 nM; Ki [4]: 592 nM; Ki [5]: 2140 nM; Ki [6]: 810 nM
COc1cc(-c2nc(SCc3ccc(Cl)cc3)nc(Sc3nnnn3C)c2C#N)cc(OC)c1OC | – | Ki [3]: 18.8 nM; Ki [4]: 385 nM; Ki [5]: > 20000 nM; Ki [6]: > 20000 nM
COc1ccc(CNC(=O)CCn2c(-c3ccc(OC)cc3)n[nH]c2=S)cc1 | > 20000 nM | –
CC(C)c1cccc(NC(=O)CCn2c(-c3ccc(Cl)cc3)n[nH]c2=S)c1 | 15.7 nM | IC50 [1]: > 100 µg/mL

Compound | IC50 [2] | also measured
O=C(CCn1c(-c2ccc(Cl)cc2)n[nH]c1=S)Nc1cccc(Br)c1 | 22.2 nM | –
O=C(CCn1c(-c2ccc(O)cc2)n[nH]c1=S)Nc1ccccc1C(F)(F)F | 100 nM | –
COc1ccc(-c2n[nH]c(=S)n2CCC(=O)Nc2cccc(C(F)(F)F)c2)cc1 | 14.1 nM | IC50 [1]: > 100 µg/mL
CC(C)(C)c1ccc(-c2n[nH]c(=S)n2CCC(=O)Nc2cccc(C(F)(F)F)c2)cc1 | 7.85 nM | –
O=C(CCn1c(-c2ccc(F)cc2)n[nH]c1=S)Nc1cccc(C(F)(F)F)c1 | 18.9 nM | IC50 [1]: > 100 µg/mL
O=C(CCn1c(-c2ccc(Cl)cc2)n[nH]c1=S)Nc1ccc(Br)cc1 | 25.6 nM | –
O=C(CCn1c(-c2ccc(Cl)cc2)n[nH]c1=S)Nc1ccccc1 | 545 nM | –
COc1ccc(CNC(=O)CCn2c(-c3ccc(Cl)cc3)n[nH]c2=S)cc1 | > 20000 nM | –
Cc1ccc(-c2n[nH]c(=S)n2CCC(=O)Nc2cccc(C(F)(F)F)c2)cc1 | 9.42 nM | IC50 [1]: > 100 µg/mL
C=C(CN(C)C)C(=O)NC[C@@H](NC(=O)[C@H](Cc1nc2ccc(C(C)C)cc2s1)NC(=O)CC)C1CCCCC1 | – | Ki (DCN1-like protein 1): < 1 nM
COc1ccc(-c2n[nH]c(=S)n2CCC(=O)Nc2cc(-c3ccccc3)ccc2O)cc1 | 1110 nM | –
COc1ccccc1NC(=O)CCn1c(-c2ccc(Cl)cc2)n[nH]c1=S | 884 nM | –
CSc1nnc(-c2ccc(Cl)cc2)n1CCC(=O)Nc1cccc(C(F)(F)F)c1 | 1630 nM | –
O=C(CCn1c(-c2ccc([N+](=O)[O-])cc2)n[nH]c1=S)Nc1cccc(C(F)(F)F)c1 | 46.2 nM | –
O=C(CCCn1c(-c2ccc(Cl)cc2)n[nH]c1=S)Nc1cccc(C(F)(F)F)c1 | 45.2 nM | –
O=C(CCn1cnnc1-c1ccc(Cl)cc1)Nc1cccc(C(F)(F)F)c1 | 15800 nM | –
O=C(CCn1c(-c2ccncc2)n[nH]c1=S)Nc1cccc(C(F)(F)F)c1 | 221 nM | –
O=C(CCn1c(-c2ccc(Cl)cc2)n[nH]c1=O)Nc1cccc(C(F)(F)F)c1 | 7580 nM | –
COc1ccc(-c2n[nH]c(=S)n2CCC(=O)Nc2ccc(Br)cc2O)cc1 | 209 nM | –
O=C(CCn1c(-c2ccccc2Cl)n[nH]c1=S)Nc1cccc(C(F)(F)F)c1 | 28.8 nM | –

Now from value to molecule, other results behind:

IC50 [2] | Compound | also measured
7110 nM | Cc1cccc2[nH]c(CSc3nnc(-c4ccc(Cl)cc4)n3CCC(=O)Nc3cccc(C(F)(F)F)c3)nc12 | –
195 nM | CC(C)(C)c1ccc(O)c(NC(=O)CCn2c(-c3ccc(Cl)cc3)n[nH]c2=S)c1 | –
> 20000 nM | O=C(CCn1c(-c2ccc(Cl)cc2)n[nH]c1=S)NCc1ccoc1 | –
69.4 nM | O=C(CCn1c(-c2ccc(Cl)cc2)n[nH]c1=S)Nc1ccc(Cl)cc1 | –
24.9 nM | O=C(CCn1c(-c2ccc(Br)cc2)n[nH]c1=S)Nc1cccc(C(F)(F)F)c1 | –
2170 nM | O=C(CCn1c(-c2ccc(Cl)cc2)n[nH]c1=S)NCCc1c[nH]c2ccccc12 | –
2320 nM | COc1ccc(-c2n[nH]c(=S)n2CCC(=O)Nc2cc(C(C)(C)C)ccc2O)cc1 | –
330 nM | O=C(CCn1c(-c2ccc(Cl)cc2)n[nH]c1=S)Nc1cc(-c2ccccc2)ccc1O | –
> 20000 nM | O=C(CSc1nnc(-c2ccc(Cl)cc2)n1CCC(=O)Nc1cccc(C(F)(F)F)c1)NC(=O)Nc1ccccc1 | –
> 20000 nM | O=C(CCn1c(-c2ccc(Cl)cc2)n[nH]c1=S)Nc1ccc(O)cc1 | –
650 nM | Cc1ccc(O)c(NC(=O)CCn2c(-c3ccc(Cl)cc3)n[nH]c2=S)c1 | –
27.4 nM | O=C(Cn1c(-c2ccc(Cl)cc2)n[nH]c1=S)Nc1cccc(C(F)(F)F)c1 | –
50.5 nM | Cc1ccc(NC(=O)CCn2c(-c3ccc(Cl)cc3)n[nH]c2=S)cc1 | –
840 nM | COc1ccc(-c2n[nH]c(=S)n2CCC(=O)Nc2ccc(OC)cc2OC)cc1 | –
> 20000 nM | COc1ccc(-c2n[nH]c(=S)n2CCC(=O)NCc2ccoc2)cc1 | –
12.8 nM | CC(C)c1ccc(NC(=O)CCn2c(-c3ccc(Cl)cc3)n[nH]c2=S)cc1 | IC50 [1]: > 100 µg/mL
1460 nM | COc1ccc(-c2n[nH]c(=S)n2CCC(=O)Nc2cc(C)ccc2O)cc1 | –
> 20000 nM | N#Cc1cc(NC(=O)CCn2c(-c3ccc(Cl)cc3)n[nH]c2=S)n[nH]1 | –
77.6 nM | COc1cccc(NC(=O)CCn2c(-c3ccc(Cl)cc3)n[nH]c2=S)c1 | –
43.1 nM | O=C(CCn1c(-c2ccc(O)cc2)n[nH]c1=S)NCc1cccc(C(F)(F)F)c1 | –
